Source: patent US20260062422A1 (Halda Therapeutics OpCo, Inc., priority 2022, published 2026)
pKd: −log10 of the molar value.

These compounds were tested against T1, androgen receptor (Homo sapiens, UniProt P10275) (assay: Assay for binding affinity to androgen receptor ([3H]methyltrienolone radioligand, cell cytosol)). Details: 1 nM [3H]methyltrienolone, 24 hours at 4° C., Table 5.
T1 sequence (P10275 1-920 T878A): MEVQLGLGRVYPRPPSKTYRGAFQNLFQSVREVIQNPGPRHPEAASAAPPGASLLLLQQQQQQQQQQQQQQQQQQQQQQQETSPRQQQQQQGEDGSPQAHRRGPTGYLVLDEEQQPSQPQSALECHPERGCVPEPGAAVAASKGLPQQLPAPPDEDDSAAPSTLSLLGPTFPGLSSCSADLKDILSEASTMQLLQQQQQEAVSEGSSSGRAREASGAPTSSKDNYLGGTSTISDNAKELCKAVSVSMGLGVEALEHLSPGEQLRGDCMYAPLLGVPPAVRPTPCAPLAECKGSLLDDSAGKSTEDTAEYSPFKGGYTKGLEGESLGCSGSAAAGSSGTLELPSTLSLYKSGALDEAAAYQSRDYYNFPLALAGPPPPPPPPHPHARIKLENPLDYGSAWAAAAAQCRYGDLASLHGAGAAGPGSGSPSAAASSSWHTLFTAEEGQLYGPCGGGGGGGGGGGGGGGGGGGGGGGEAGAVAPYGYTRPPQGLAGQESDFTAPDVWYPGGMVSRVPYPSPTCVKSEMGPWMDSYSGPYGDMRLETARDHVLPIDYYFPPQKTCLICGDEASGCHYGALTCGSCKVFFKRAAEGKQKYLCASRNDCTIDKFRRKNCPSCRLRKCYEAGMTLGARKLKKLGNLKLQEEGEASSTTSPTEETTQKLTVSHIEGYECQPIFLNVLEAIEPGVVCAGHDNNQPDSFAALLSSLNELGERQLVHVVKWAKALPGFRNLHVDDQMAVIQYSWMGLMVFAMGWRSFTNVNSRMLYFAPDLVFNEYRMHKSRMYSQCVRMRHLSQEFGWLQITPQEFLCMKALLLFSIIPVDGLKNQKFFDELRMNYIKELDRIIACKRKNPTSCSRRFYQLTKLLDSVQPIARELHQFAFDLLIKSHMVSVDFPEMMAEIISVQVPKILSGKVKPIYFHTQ
Method: Fractions of cell cytosol ([…] cell/point) were incubated for 24 hours at 4° C. with 1 nM [^3H]methyltrienolone in the absence or presence of the test compound in a buffer containing 25 mM Hepes-Tris (pH 7.4), 1 mM EDTA, 10 mM Na2MoO4, 2 mM DTT, 5 μM triamcinolone acetonide, and 10% glycerol. Nonspecific binding was determined in the presence of 1 μM testosterone. Following incubation, the samples were filtered rapidly under vacuum through glass fiber filters (GF/B, Packard) presoaked with 0.3% PEI and rinsed several times with ice-cold 50 mM Tris-HCl using a 96-sample cell harvester (Unifilter, Packard). The filters were dried then counted for radioactivity in a scintillation counter (Topcount, Packard) using a scintillation cocktail (Microscint 0, Packard). The results are expressed as a percent inhibition of the control radioligand specific binding. The standard reference compound is testosterone, which is tested in each experiment at several concentrations to obtain a competition curve from which its IC50 is calculated.

pKd	SMILES
> 7.30	Cc1sc2c(c1C)C(c1ccc(Cl)cc1)=N[C@H](CC(=O)NCCOCCOCCOCCOCCN(C)c1ncc(C(=O)N[C@H]3C(C)(C)[C@H](Oc4ccc(C#N)c(Cl)c4)C3(C)C)cn1)c1nnc(C)n1-2 [Compound I-19]
> 7.30	Cc1sc2c(c1C)C(c1ccc(Cl)cc1)=N[C@@H](CC(=O)NCCOC1CCN(c3ncc(C(=O)N[C@H]4C(C)(C)[C@H](Oc5ccc(C#N)c(Cl)c5)C4(C)C)cn3)CC1)c1nnc(C)n1-2 [Compound I-6]
> 7.30	Cc1sc2c(c1C)C(c1cccc(OCCOC3CCN(c4ncc(C(=O)N[C@H]5C(C)(C)[C@H](Oc6ccc(C#N)c(Cl)c6)C5(C)C)cn4)CC3)c1)=N[C@@H](CC(=O)O)c1nnc(C)n1-2 [Compound I-41]
> 7.30	Cc1sc2c(c1C)C(c1ccc(CC3CC4(CCN(c5ncc(C(=O)N[C@H]6C(C)(C)[C@H](Oc7ccc(C#N)c(Cl)c7)C6(C)C)cn5)CC4)C3)cc1)=N[C@@H](C)c1nnc(C)n1-2 [Compound I-303]
> 7.30	Cc1sc2c(c1C)C(c1ccc(OCCOCCOC3CCN(c4ncc(C(=O)N[C@H]5C(C)(C)[C@H](Oc6ccc(C#N)c(Cl)c6)C5(C)C)cn4)CC3)cc1)=N[C@@H](CC(=O)O)c1nnc(C)n1-2 [Compound I-39]
> 7.30	Cc1sc2c(c1C)C(c1ccc(Cl)cc1)=N[C@@H](CC(=O)NCCOCCOCCOCCOCCOC1CCN(c3ncc(C(=O)N[C@H]4C(C)(C)[C@H](Oc5ccc(C#N)c(Cl)c5)C4(C)C)cn3)CC1)c1nnc(C)n1-2 [Compound I-8]
> 7.30	Cc1sc2c(c1C)C(c1cccc(OCCOCCOCCOC3CCN(c4ncc(C(=O)N[C@H]5C(C)(C)[C@H](Oc6ccc(C#N)c(Cl)c6)C5(C)C)cn4)CC3)c1)=N[C@@H](CC(=O)O)c1nnc(C)n1-2 [Compound I-43]
> 7.30	CCNC(=O)C[C@@H]1N=C(c2ccc(N3CC(N(C)C4CN(c5ncc(C(=O)N[C@H]6C(C)(C)[C@H](Oc7ccc(C#N)c(Cl)c7)C6(C)C)cn5)C4)C3)cc2)c2c(sc(C)c2C)-n2c(C)nnc21 [Compound I-121]
> 7.30	CCNC(=O)C[C@@H]1N=C(c2ccc(OCCOCCOCCOC3CCN(c4ncc(C(=O)N[C@H]5C(C)(C)[C@H](Oc6ccc(C#N)c(Cl)c6)C5(C)C)cn4)CC3)cc2)c2c(sc(C)c2C)-n2c(C)nnc21 [Compound I-45, N-((1r,3r)-3-(3-chloro-4-cyanophenoxy)-2,2,4,4-tetramethylcyclobutyl)-2-(4-(2-(2-(2-(4-((S)-6-(2-(ethylamino)-2-oxoethyl)-2,3,9-trimethyl-6H-thieno[3,2-f][1,2,4]triazolo[4,3-a][1,4]diazepin-4-yl)phenoxy)ethoxy)ethoxy)ethoxy)piperidin-1-yl)pyrimidine-5-carboxamide]
> 7.30	Cc1sc2c(c1C)C(c1ccc(OCCOCCOCCOC3CCN(c4ncc(C(=O)N[C@H]5C(C)(C)[C@H](Oc6ccc(C#N)c(Cl)c6)C5(C)C)cn4)CC3)cc1)=N[C@@H](CC(=O)O)c1nnc(C)n1-2 [Compound I-40]
> 7.30	CCNC(=O)C[C@@H]1N=C(c2ccc(OCCOCCOC3CCN(c4ncc(C(=O)N[C@H]5C(C)(C)[C@H](Oc6ccc(C#N)c(Cl)c6)C5(C)C)cn4)CC3)cc2)c2c(sc(C)c2C)-n2c(C)nnc21 [Compound I-44]
> 7.30	Cc1sc2c(c1C)C(c1ccc(OC3CC4(C3)CC3(CCN(c5ncc(C(=O)N[C@H]6C(C)(C)[C@H](Oc7ccc(C#N)c(Cl)c7)C6(C)C)cn5)CC3)C4)cc1)=N[C@@H](Cc1ncco1)c1nnc(C)n1-2 [Compound I-283]
> 7.30	CCNC(=O)C[C@@H]1N=C(c2ccc(OCCCN(C)c3ncc(C(=O)N[C@H]4C(C)(C)[C@H](Oc5ccc(C#N)c(Cl)c5)C4(C)C)cn3)cc2)c2c(sc(C)c2C)-n2c(C)nnc21 [Compound I-81]
> 7.30	Cc1sc2c(c1C)C(c1ccc(Cl)cc1)=N[C@@H](CC(=O)NCCCN1CCN(CCCOC3CCN(c4ncc(C(=O)N[C@H]5C(C)(C)[C@H](Oc6ccc(C#N)c(Cl)c6)C5(C)C)cn4)CC3)CC1)c1nnc(C)n1-2 [Compound I-10]
> 7.30	CCNC(=O)C[C@@H]1N=C(c2cccc(OCCOCCOCCOC3CCN(c4ncc(C(=O)N[C@H]5C(C)(C)[C@H](Oc6ccc(C#N)c(Cl)c6)C5(C)C)cn4)CC3)c2)c2c(sc(C)c2C)-n2c(C)nnc21 [Compound I-48, N-((1r,3r)-3-(3-chloro-4-cyanophenoxy)-2,2,4,4-tetramethylcyclobutyl)-2-(4-(2-(2-(2-(3-((S)-6-(2-(ethylamino)-2-oxoethyl)-2,3,9-trimethyl-6H-thieno[3,2-f][1,2,4]triazolo[4,3-a][1,4]diazepin-4-yl)phenoxy)ethoxy)ethoxy)ethoxy)piperidin-1-yl)pyrimidine-5-carboxamide]
> 7.30	Cc1sc2c(c1C)C(c1ccc(Cl)cc1)=N[C@@H](CC(=O)NCCCN1CCN(CC3CCN(c4ncc(C(=O)N[C@H]5C(C)(C)[C@H](Oc6ccc(C#N)c(Cl)c6)C5(C)C)cn4)CC3)CC1)c1nnc(C)n1-2 [Compound I-36, N-((1r,3r)-3-(3-chloro-4-cyanophenoxy)-2,2,4,4-tetramethylcyclobutyl)-2-(4-((4-(3-(2-((S)-4-(4-chlorophenyl)-2,3,9-trimethyl-6H-thieno[3,2-f][1,2,4]triazolo[4,3-a][1,4]diazepin-6-yl)acetamido)propyl)piperazin-1-yl)methyl)piperidin-1-yl)pyrimidine-5-carboxamide]
> 7.30	Cc1sc2c(c1C)C(c1ccc(Cl)cc1)=N[C@@H](CC(=O)NCCN(C)c1ncc(C(=O)N[C@H]3C(C)(C)[C@H](Oc4ccc(C#N)c(Cl)c4)C3(C)C)cn1)c1nnc(C)n1-2 [Compound I-1, N-[3-(3-chloro-4-cyano-phenoxy)-2,2,4,4-tetramethyl-cyclobutyl]-2-[2-[[2-[(9S)-7-(4-chlorophenyl)-4,5,13-trimethyl-3-thia-1,8,11,12-tetrazatricyclo[8.3.0.02,6]trideca-2(6),4,7,10,12-pentaen-9-yl]acetyl]amino]ethyl-methyl-amino]pyrimidine-5-carboxamide]
> 7.30	Cc1sc2c(c1C)C(c1ccc(Cl)cc1)=N[C@H](CC(=O)NCCOCCOCCOCCOCCOCCOCCOC1CCN(c3ncc(C(=O)N[C@H]4C(C)(C)[C@H](Oc5ccc(C#N)c(Cl)c5)C4(C)C)cn3)CC1)c1nnc(C)n1-2 [Compound I-9]
> 7.30	Cc1sc2c(c1C)C(c1ccc(OCCOC3CCN(c4ncc(C(=O)N[C@H]5C(C)(C)[C@H](Oc6ccc(C#N)c(Cl)c6)C5(C)C)cn4)CC3)cc1)=N[C@@H](CC(=O)O)c1nnc(C)n1-2 [Compound I-38]
> 7.30	Cc1sc2c(c1C)C(c1ccc(Cl)cc1)=N[C@@H](CC(=O)NCCOCCOCCOCC1CN(c3ncc(C(=O)N[C@H]4C(C)(C)[C@H](Oc5ccc(C#N)c(Cl)c5)C4(C)C)cn3)C1)c1nnc(C)n1-2 [Compound I-18]
> 7.30	Cc1sc2c(c1C)C(c1ccc(Cl)cc1)=N[C@H](CC(=O)NCCOCCOCCOCCOC1CCN(c3ncc(C(=O)N[C@H]4C(C)(C)[C@H](Oc5ccc(C#N)c(Cl)c5)C4(C)C)cn3)CC1)c1nnc(C)n1-2 [Compound I-13]
> 7.30	CCNC(=O)C[C@@H]1N=C(c2ccc(OCCCCc3ncc(C(=O)N[C@H]4C(C)(C)[C@H](Oc5ccc(C#N)c(Cl)c5)C4(C)C)cn3)cc2)c2c(sc(C)c2C)-n2c(C)nnc21 [Compound I-86]
> 7.30	Cc1sc2c(c1C)C(c1ccc(Cl)cc1)=N[C@@H](CC(=O)NCCCCCCCOC1CCN(c3ncc(C(=O)N[C@H]4C(C)(C)[C@H](Oc5ccc(C#N)c(Cl)c5)C4(C)C)cn3)CC1)c1nnc(C)n1-2 [Compound I-24]
> 7.30	CCNC(=O)C[C@@H]1N=C(c2ccc(N3CCC(CN4CC(Oc5ncc(C(=O)N[C@H]6C(C)(C)[C@H](Oc7ccc(C#N)c(Cl)c7)C6(C)C)cn5)C4)CC3)cc2)c2c(sc(C)c2C)-n2c(C)nnc21 [Compound I-124]
> 7.30	CCNC(=O)C[C@@H]1N=C(c2ccc(OCCCC#Cc3ncc(C(=O)N[C@H]4C(C)(C)[C@H](Oc5ccc(C#N)c(Cl)c5)C4(C)C)cn3)cc2)c2c(sc(C)c2C)-n2c(C)nnc21 [Compound I-83]
